Laboratory results from patent US6451844B1, “Use of menthyl-2 pyrrolidone-5-carboxylate as an insect repellent” (Quest International BV, priority 1998, dated 2002).

Tested on: Aedes aegypti
Test: Insect repellency test (mosquitoes attempting to bite treated warmed membrane targets)
Assay type: in vivo
Details: for % Repellency initially / % Repellency After 1 Hour: neat compound, 30 microlitres on membrane, 27° C.; for % Repellency initially: 10 minute period directly after application; for % Repellency After 1 Hour: 10 minute period one hour after application
Method: Four test chambers were prepared using 300 mm 200 gauge […] tubing. The synthetic plastics tubing was attached to oblong stainless steel frames (150 mm by 150 mm by 900 mm) using double-sided adhesive tape. 200 mm squares of cotton netting were used to cover the ends of the chambers and were secured using adhesive tape. Mosquitoes (naive insects of the species Aedes aegypti, 4 to 7 days old) were introduced into each chamber 8 and the chambers 8 were kept in a separate room until the test was ready to begin. The exhaust fan which vents the room in which the test was performed was switched on. Four targets 5 (only two shown) were prepared as follows: double layers of semi-porous membrane were stretched over the open ends of four open ended glassware bulbs (diameter of open end 43 mm) and secured using elastic bands. Testing was carried out at 27° C. The membranes were kept moist and warmed above the ambient temperature throughout the test by passing a supply of water ([…]) through the glassware bulbs, so as to contact the inner surface of the membranes. […] This was repeated with two other membranes and the fourth membrane was left untreated as a control. The chambers 8 containing the mosquitoes were positioned so that each chamber had one netting end pressed against one of the targets 5. Glass partitions in the form of a cross 6 were used to separate each target 5 and chamber end from its neighbour. […] The separation of the membranes ensured that air passing over a particular membrane would pass through only one test chamber 8. The filters 2, 3 were used to remove volatile elements from the air passing over the mosquitoes; filter 2 contained activated charcoal and filter 3 contained a molecular sieve (Union Carbide type 5A zeolite). The material in each filter 2, 3 was held within the cells of a 25 mm thick sheet of aluminium honeycomb sandwiched between two sheets of stainless steel mesh held in an aluminium frame. The filters 2,3 were bolted by their frames to the inside of an aluminium tunnel such that air passing along the tunnel passed through the filters 2, 3. […] An electronic timer was used to project the date and time onto the screen, and the video recorder 14 was used to record the data. The mosquitoes in the test chambers 8 were activated by introduction of a human breath stimulus upwind of the targets 5 and the number of insects attempting to bite each target 5 over the next ten minute period was recorded. After ten minutes, the recording was stopped and the test chambers 8 removed from their position immediately downwind of the targets 5. […] The numbers of mosquitoes attempting to bite each of the targets 5 was noted every 10 seconds throughout each ten minute recording period. The 60 readings were used to produce a figure for the mean number of insects biting each target 5 during the ten minute test periods. The reading obtained for the untreated target 5 was used to give a measure of the basic avidity of the mosquitoes used in the test and this was taken into account when analysing the results. […] The above lotions were tested for insect repellency using the method outlined in Example 1.

| Compound | % Repellency initially | % Repellency After 1 Hour | insect repellent effectiveness (in words) (compared with hydrolysis product menthol, maintained for at least 1 hour after application to a substrate) |
| --- | --- | --- | --- |
| CCN(CC)C(=O)c1cccc(C)c1 [DEET, N,N-diethyl-m-toluamide] | 93% | 75% | – |
| CC1CCC(C(C)C)C(OC(=O)C2CCC(=O)N2)C1 (stereo not shown) [Menthyl 2-pyrrolidone-5-carboxylate] | 80% | 59% | more effective insect repellent than its hydrolysis product, menthol |
| CC1CCC(C(C)C)C(O)C1 (stereo not shown) [Menthol, menthol] | 49% | 25% | – |
